According to paper PMC11045757, “Group 3 medulloblastoma transcriptional networks collapse under domain specific EP300/CBP inhibition” (Nature Communications, 2024):

System: 460 barcoded cancer cell lines
Test: PRISM pooled barcoded cancer cell line growth screen, 10-point dose-response, 5 days, AUC
Type: cell-based
Parameters: scale not given here
Description: Several small molecule inhibitors of distinct protein domains of EP300/CBP are available, though the majority target the histone acetyltransferase domain (HAT) or bromodomain (BRD)[5],[10],[21],[22]. […] We used these tools to investigate the relative contribution of the EP300/CBP BRD or HAT domain to tumor cell growth (Fig. 1a). To do so, we performed 10-point, dose-response growth assays using mixed pools of 460 barcoded cancer cell lines, over five days of treatment in vitro[33],[34]. Growth was measured using an area-under-the-curve (AUC) approach (Supplementary Table 1, Supplementary Fig. 1a). […] Given potential differences in compound penetration and solubility, and to compare the relative cell line and tumor-specific effects of these two compounds in assays performed non-simultaneously, we performed a median normalization of each dataset (Supplementary Table 2).

CO[C@H]1CC[C@H](n2c([C@@H]3CCCC(=O)N3c3ccc(F)c(F)c3)nc3cc(-c4c(C)noc4C)ccc32)CC1 [CCS1477]
AUC (HCC1428, Breast Cancer): 0.8123
AUC (HCC1438, Lung Cancer): 0.9027
AUC (HCC1806, Breast Cancer): 0.9831
AUC (HCC1937, Breast Cancer): 1
AUC (HCC2108, Lung Cancer): 0.7949
AUC (HCC4006, Lung Cancer): 0.9703
AUC (HCT116, Colon/Colorectal Cancer): 0.9792
AUC (HDMYZ, Lymphoma): 0.8423
AUC (HDQP1, Breast Cancer): 0.939
AUC (HEC1B, Endometrial/Uterine Cancer): 0.8393
AUC (HEC6, Endometrial/Uterine Cancer): 0.9929
AUC (HEC50B, Endometrial/Uterine Cancer): 0.7901
AUC (HEL9217, AML): 0.6249
AUC (HEL, AML): 0.5914
AUC (HEP3B217, Liver Cancer): 0.9151
AUC (HEPG2, Liver Cancer): 0.7882
AUC (HEYA8, Ovarian Cancer): 0.9726
AUC (HGC27, Gastric Cancer): 0.9831
AUC (HH, Lymphoma): 0.8948
AUC (HOS, Osteosarcoma): 0.9628
AUC (HPBALL, T-acute leukemia): 0.9516
AUC (HS294T, Melanoma): 0.9659
AUC (HS766T, Pancreatic Cancer): 0.9722
AUC (HSC2, Head and Neck Cancer): 0.9695
AUC (HSC3, Head and Neck Cancer): 0.9769
AUC (HT29, Colon/Colorectal Cancer): 0.658
AUC (HT115, Colon/Colorectal Cancer): 0.9413
AUC (HT144, Melanoma): 1
AUC (HT1197, Bladder Cancer): 0.9485
AUC (HT, B-cell Lymphoma): 0.7078
AUC (HUCCT1, Bile Duct Cancer): 0.9905
AUC (HUG1N, Gastric Cancer): 0.95
AUC (HUH1, Liver Cancer): 0.8468
AUC (HUH7, Liver Cancer): 1
AUC (HUH28, Bile Duct Cancer): 0.9991
AUC (HUPT3, Pancreatic Cancer): 0.8687
AUC (HUPT4, Pancreatic Cancer): 0.7771
AUC (HUT78, Lymphoma): 0.9925
AUC (IALM, Lung Cancer): 0.7856
AUC (IGR37, Melanoma): 1
AUC (IGROV1, Ovarian Cancer): 0.9601
AUC (IM95, Gastric Cancer): 0.8194
AUC (IPC298, Melanoma): 0.9388
AUC (ISHIKAWAHERAKLIO02ER, Endometrial/Uterine Cancer): 0.9971
AUC (ISTMES1, Lung Cancer): 0.9282
AUC (J82, Bladder Cancer): 1
AUC (JEKO1, Lymphoma): 0.9796
AUC (JHH1, Liver Cancer): 0.7664
AUC (JHH4, Liver Cancer): 0.9641
AUC (JHH5, Liver Cancer): 0.6818
AUC (JHH7, Liver Cancer): 0.9818
AUC (JHOC5, Ovarian Cancer): 1
AUC (JHUEM7, Endometrial/Uterine Cancer): 0.8239
AUC (JVM3, B-cell Leukemia): 0.9481
AUC (K029AX, Melanoma): 0.7327
AUC (KALS1, Glioblastoma): 0.99
AUC (KARPAS620, Myeloma): 0.9486
AUC (KATOIII, Gastric Cancer): 0.9783
AUC (KCL22, CML): 0.7293
AUC (KD, Rhabdoid): 0.7052
AUC (KE37, T-acute leukemia): 0.8049
AUC (KE39, Gastric Cancer): 1
AUC (KELLY, Neuroblastoma): 0.8609
AUC (KMBC2, Bladder Cancer): 0.8012
AUC (KMS11, Myeloma): 0.8305
AUC (KMS12BM, Myeloma): 0.8083
AUC (KMS18, Myeloma): 0.8881
AUC (KMS21BM, Myeloma): 0.9427
AUC (KMS28BM, Myeloma): 0.7058
AUC (KMS34, Myeloma): 0.8725
AUC (KNS42, Glioblastoma): 0.9251
AUC (KNS60, Glioblastoma): 0.8942
AUC (KNS62, Lung Cancer): 0.9516
AUC (KP3, Pancreatic Cancer): 1
AUC (KPNYN, Neuroblastoma): 0.9626
AUC (KS1, Glioma): 0.7921
AUC (KU1919, Bladder Cancer): 0.7361
AUC (KYM1, Rhabdoid): 0.9475
AUC (KYSE30, Esophageal Cancer): 0.989
AUC (KYSE150, Esophageal Cancer): 0.988
AUC (KYSE410, Esophageal Cancer): 0.9549
AUC (KYSE510, Esophageal Cancer): 0.928
AUC (KYSE520, Esophageal Cancer): 0.9953
AUC (LAMA84, CML): 0.8874
AUC (LC1SQSF, Lung Cancer): 0.9937
AUC (LCLC103H, Lung Cancer): 0.945
AUC (LI7, Liver Cancer): 0.8469
AUC (LK2, Lung Cancer): 0.7132
AUC (LMSU, Gastric Cancer): 0.9918
AUC (LN18, Glioblastoma): 0.9905
AUC (LNCAPCLONEFGC, Prostate Cancer): 0.7183
AUC (LOUNH91, Lung Cancer): 1
AUC (LOVO, Colon/Colorectal Cancer): 0.6312
AUC (LOXIMVI, Melanoma): 0.8683
AUC (LS180, Colon/Colorectal Cancer): 0.9873
AUC (LS411N, Colon/Colorectal Cancer): 0.9732
AUC (LUDLU1, Lung Cancer): 0.9677
AUC (LXF289, Lung Cancer): 0.9728
AUC (M059K, Glioblastoma): 0.8113
AUC (MALME3M, Melanoma): 0.7988
AUC (MC116, B-cell Lymphoma): 0.9377
AUC (MCAS, Ovarian Cancer): 0.9952
AUC (MCF7, Breast Cancer): 0.7913
AUC (MDAMB175VII, Breast Cancer): 0.9996
AUC (MDAMB231, Breast Cancer): 0.8811
AUC (MDAMB361, Breast Cancer): 0.7401
AUC (MDAMB436, Breast Cancer): 1
AUC (MDAMB453, Breast Cancer): 0.5759
AUC (MDAMB468, Breast Cancer): 1
AUC (MDST8, Colon/Colorectal Cancer): 0.9162
AUC (MELHO, Melanoma): 0.7224
AUC (MESSA, Uterine Sarcoma): 0.7646
AUC (MFE280, Endometrial/Uterine Cancer): 0.8205
